From PMC3542813, “High-throughput screening with the Eimeria tenella CDC2-related kinase2/cyclin complex EtCRK2/EtCYC3a” (Microbiology, 2012)
Like-named read-outs stand apart in the source and are kept apart here.

Columns and labels:
EtCRK2/EtCYC3a = EtCRK2/EtCYC3a (Eimeria tenella, UniProt Q6R8F0); assay: TR-FRET kinase assay, EtCRK2 activated by EtCYC3a; assay type: biochemical
Excerpt: (§1) In order to discover specific inhibitors of EtCRK2 we performed an in vitro screening campaign supported by an in silico hit enrichment (Fig. 4).

EtCRK2/XlRINGO = EtCRK2/XlRINGO (Eimeria tenella, UniProt Q6R8F0); assay: biochemical
Excerpt: Therefore, we tested XlRINGO as an activator of EtCRK2.
as §1

HsCDK2/HsCYCA = HsCDK2/HsCYCA (Homo sapiens, UniProt P24941); assay: TR-FRET kinase assay, human CDK2 activated by human cyclin A; assay type: biochemical; conditions: for IC50 / Ki: mean±SD, n = 3–6
[1] = target: Eimeria tenella cyclin-like 3a (EtCYC3a), maltose binding protein fusion (Eimeria tenella)
[2] = test system: E. tenella schizont development; design: method as in Engels et al., 2010; conditions: ref Engels et al., 2010, cited from earlier work
host cell = test system: host cell; design: method as in Engels et al., 2010; conditions: ref Engels et al., 2010; cited from earlier work
EtCRK2 = test system: EtCRK2; design: method as in Engels et al., 2010; conditions: ref Engels et al., 2010, cited from earlier work
[3] = standard CDK inhibitors, mean±SD, n = 3–6, read-out: IC50 EtCRK2/EtCYC3a
[4] = standard CDK inhibitors, mean±SD, n = 3–6, read-out: Ki EtCRK2/EtCYC3a
[5] = standard CDK inhibitors, mean±SD, n = 3–6, read-out: IC50 EtCRK2/XlRINGO
[6] = standard CDK inhibitors, mean±SD, n = 3–6, read-out: Ki EtCRK2/XlRINGO
[7] = lead structures, mean±SD, n = 3–6, read-out: IC50 EtCRK2/ EtCYC3a
[8] = lead structures, mean±SD, n = 3–6, read-out: Ki EtCRK2/ ETCYC3a
[9] = lead structures, mean±SD, n = 3–6, read-out: IC50 EtCRK2/ XlRINGO
[10] = lead structures, mean±SD, n = 3–6, read-out: Ki EtCRK2/ XlRINGO

O=C1Cc2c([nH]c3ccc([N+](=O)[O-])cc23)-c2ccccc2N1 [Alsterpaullone, 9-nitro-7,12-dihydro-5H-indolo[3,2-d][1]benzazepin-6-one]
IC50 (EtCRK2/EtCYC3a; [3]): 640 ± 340 nM
Ki (EtCRK2/EtCYC3a; [4]): 210 ± 40 nM
IC50 (EtCRK2/XlRINGO; [5]): 220 ± 60 nM
Ki (EtCRK2/XlRINGO; [6]): 70 ± 2 nM

Cc1cc(O)c2c(c1O)C(=O)C(Cl)=C(Cl)C2=O [BES130131, 2,3-dichloro-5,8-dihydroxy-6-methyl-naphthalene-1,4-dione]
IC50 (EtCRK2/EtCYC3a; [7]): 18100 ± 1030 nM
Ki (EtCRK2/EtCYC3a; [8]): 6870 ± 1740 nM
IC50 (EtCRK2/XlRINGO; [9]): 14800 ± 8410 nM
Ki (EtCRK2/XlRINGO; [10]): 5250 ± 200 nM
IC50 (HsCDK2/HsCYCA; lead structures): 14400 ± 1520 nM
Ki (HsCDK2/HsCYCA; lead structures): 3350 ± 1060 nM

OC(CSc1ccccc1)CN1CCC(Nc2nccc(C(F)(F)F)n2)CC1 (centres unmarked) [BES124764, 1-phenylsulfanyl-3-[4-[[4-(trifluoromethyl)pyrimidin-2-yl]amino]-1-piperidyl]propane-2-ol]
IC50 (EtCRK2/EtCYC3a; [7]): 7350 ± 1820 nM
Ki (EtCRK2/EtCYC3a; [8]): 3420 ± 1080 nM
IC50 (EtCRK2/XlRINGO; [9]): 18600 ± 3720 nM
Ki (EtCRK2/XlRINGO; [10]): 4330 ± 920 nM
times more active towards the two E. tenella complexes than towards the HsCDK2/HsCYCA complex (HsCDK2/HsCYCA; EtCRK2/XlRINGO and EtCRK2/EtCYC3a versus HsCDK2/HsCYCA): 25–30 times
IC50 (HsCDK2/HsCYCA; lead structures): > 200000 nM
Ki (HsCDK2/HsCYCA; lead structures): 95300 ± 19100 nM
selectivity for EtCRK2 versus HsCDK2 (HsCDK2/HsCYCA; result in words): selective for EtCRK2

Nc1cc(S(=O)(=O)O)c2cccnc2c1O [BES312351, 7-amino-8-hydroxy-quinoline-5-sulfonic acid hydrate]
IC50 (EtCRK2/EtCYC3a): 6500 ± 2490 nM
Ki (EtCRK2/EtCYC3a): 4670 ± 2020 nM
IC50 (EtCRK2/XlRINGO; [9]): 7130 ± 2490 nM
Ki (EtCRK2/XlRINGO; [10]): 940 ± 310 nM
IC50 (HsCDK2/HsCYCA; lead structures): 5160 ± 2850 nM
Ki (HsCDK2/HsCYCA; lead structures): 780 ± 610 nM

CC(C)C(CO)Nc1nc(Nc2cccc(Cl)c2)c2ncn(C(C)C)c2n1 (centres unmarked) [Purvalanol A, 2-[[6-[(3-chlorophenyl)amino]-9-isopropyl-purin-2-yl]amino]-3-methyl-butan-1-ol]
IC50 (EtCRK2/EtCYC3a; [3]): 1030 ± 180 nM
Ki (EtCRK2/EtCYC3a; [4]): 360 ± 130 nM
IC50 (EtCRK2/XlRINGO): 800 ± 110 nM
Ki (EtCRK2/XlRINGO): 80 ± 10 nM
IC50 (HsCDK2/HsCYCA; standard CDK inhibitors): 140 ± 40 nM
Ki (HsCDK2/HsCYCA; standard CDK inhibitors): 40 ± 1 nM

O=C1Nc2ccc(S(=O)(=O)O)cc2/C1=C1/Nc2ccccc2C1=O [Indirubin-5′-sulfonic acid, (3Z)-2-oxo-3-(3-oxo-1H-indol-2-ylidene)-1H-indole-5-sulfonic acid]
IC50 (EtCRK2/EtCYC3a; [3]): 940 ± 310 nM
Ki (EtCRK2/EtCYC3a; [4]): 240 ± 100 nM
IC50 (EtCRK2/XlRINGO; [5]): 670 ± 180 nM
Ki (EtCRK2/XlRINGO; [6]): 170 ± 30 nM

Eimeria tenella CDC2-related kinase 2 (EtCRK2), His-tagged (enzyme)
specific activity of EtCRK2 in the EtCRK2/EtCYC3a complex, TR-FRET kinase assay with fluorescein-labelled histone H1 substrate [1]: 0.15 µmol/min/mg

NC1=NC(=O)/C(=C2\CCNC(=O)c3[nH]c(Br)cc32)N1 [10-Z-Hymendialdisine, (4Z)-4-(2-amino-4-oxo-1H-imidazol-5-ylidene)-2-bromo-1,5,6,7-tetrahydropyrrolo[2,3-c]azepin-8-one]
IC50 (EtCRK2/EtCYC3a): 930 ± 40 nM
Ki (EtCRK2/EtCYC3a): 190 ± 10 nM
IC50 (EtCRK2/XlRINGO; [5]): 440 ± 80 nM
Ki (EtCRK2/XlRINGO; [6]): 50 ± 20 nM
IC50 (HsCDK2/HsCYCA; standard CDK inhibitors): 120 ± 20 nM
Ki (HsCDK2/HsCYCA; standard CDK inhibitors): 30 ± 1 nM

CN[C@@H]1C[C@H]2O[C@@](C)([C@@H]1OC)n1c3ccccc3c3c4c(c5c6ccccc6n2c5c31)C(=O)NC4 [Staurosporine, (9S,10R,11R,13R)-2,3,10,11,12,13-hexahydro-10-methoxy-9-methyl-11-(methylamino)-9,13-epoxy-1H,9H-diindolo[1,2,3-gh:3′,2′,1′-lm]pyrrolo[3,4-j][1,7]benzodiazonin-1-one]
IC50 (EtCRK2/EtCYC3a): 190 ± 90 nM
Ki (EtCRK2/EtCYC3a): 530 ± 200 nM
IC50 (EtCRK2/XlRINGO): 90 ± 10 nM
Ki (EtCRK2/XlRINGO): 20 ± 10 nM

CN1CC[C@H](c2c(O)cc(O)c3c(=O)cc(-c4ccccc4Cl)oc23)[C@H](O)C1 [Flavopiridole, 2-(2-chlorophenyl)-5,7-dihydroxy-8-[(3S,4R)-3-hydroxy-1-methyl-4-piperidinyl]-4H-1-benzopyran-4-one]
inhibition of E. tenella schizont development ([2]; at concentrations of 150 and 300 nM): fully inhibits
inhibition of E. tenella schizont development ([2]; concentrations below 80 nm): no inhibitory effects
concentrations at which host cell toxicity is observed (host cell): above 600 nM
IC50 (EtCRK2; read-out: IC50 EtCRK2 in enzyme assays): 33 ± 10 nM
Ki (EtCRK2; read-out: Ki EtCRK2 in enzyme assays): 11 ± 3 nM
